The results in this text go back to patent US10550105B2 (Ribon Therapeutics Inc., priority 2018, dated 2020).

This experiment addresses PARP7 (Homo sapiens (Human), UniProt Q7Z3E1). The experiment can be described thus: Enzymatic assay for inhibition of PARP7: TR-FRET displacement of biotinylated Probe A from the TIPARP active site. It counts as binding. Particulars: Table A-1. In short, it runs like this:
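Displacement of biotinylated Probe A from TIPARP was measured as the 665/615 nm time-resolved FRET ratio (excitation 320 nm, 90 μs delay) after a further 30 min at 25 °C. Inhibition across compound concentrations was fitted by dose-response regression, with the Hill slope free or fixed at 1 (3-parameter fit).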
In general terms: Time-resolved FRET reads energy transfer from a long-lived donor to a nearby acceptor.

In general, IC50 refers to the concentration at which inhibition is half-maximal. A lower IC50 goes with greater potency in that assay.

PARP7, sequence (Q7Z3E1 whole entry): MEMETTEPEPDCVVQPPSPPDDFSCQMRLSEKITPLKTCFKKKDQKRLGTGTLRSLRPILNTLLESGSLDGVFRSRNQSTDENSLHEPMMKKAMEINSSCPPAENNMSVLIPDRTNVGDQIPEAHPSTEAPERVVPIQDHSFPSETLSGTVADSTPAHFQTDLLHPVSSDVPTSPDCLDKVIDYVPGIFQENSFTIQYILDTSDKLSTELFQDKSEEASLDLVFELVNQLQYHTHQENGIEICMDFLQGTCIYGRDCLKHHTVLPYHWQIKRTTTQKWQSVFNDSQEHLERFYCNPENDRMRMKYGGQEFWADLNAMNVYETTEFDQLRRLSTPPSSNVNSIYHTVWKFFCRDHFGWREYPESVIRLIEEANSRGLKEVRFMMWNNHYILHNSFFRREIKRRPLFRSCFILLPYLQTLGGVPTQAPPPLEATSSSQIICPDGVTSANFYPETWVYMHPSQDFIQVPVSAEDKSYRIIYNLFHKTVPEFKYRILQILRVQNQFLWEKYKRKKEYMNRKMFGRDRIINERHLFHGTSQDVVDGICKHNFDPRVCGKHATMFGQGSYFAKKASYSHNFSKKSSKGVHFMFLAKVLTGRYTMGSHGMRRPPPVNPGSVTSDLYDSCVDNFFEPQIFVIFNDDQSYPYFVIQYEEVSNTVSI

As to `C[C@@H](CCOCCC(=O)N1CCN(c2ncc(C(F)(F)F)cn2)CC1)Nc1cn[nH]c(=O)c1C(F)(F)F` [Example 640, (S)-5-((4-(3-Oxo-3-(4-(5-(trifluoromethyl)pyrimidin-2-yl)piperazin-1-yl)propoxy)butan-2-yl)amino)-4-(trifluoromethyl)pyridazin-3(2H)-one], the concentration for half-maximal inhibition (IC50) is under 0.1 µM. Compound `C[C@@H](COCCC(=O)N1CCN(c2ncc(C(F)(F)F)cn2)CC1)N(C)c1cn[nH]c(=O)c1C(F)(F)F` [Example 641, (S)-5-(Methyl(1-(3-oxo-3-(4-(5-(trifluoromethyl)pyrimidin-2-yl)piperazin-1-yl)propoxy)propan-2-yl)amino)-4-(trifluoromethyl)pyridazin-3(2H)-one] showed an IC50 of 0.1 to 1 µM.

Compound `O=C(CC1CCC(COc2cn[nH]c(=O)c2C(F)(F)F)N1)N1CCN(c2ncc(C(F)(F)F)cn2)CC1` (stereo not drawn) [Example 642, 5-((5-(2-Oxo-2-(4-(5-(trifluoromethyl)pyrimidin-2-yl)piperazin-1-yl)ethyl)pyrrolidin-2-yl)methoxy)-4-(trifluoromethyl)pyridazin-3(2H)-one] displayed an IC50 of 0.1 to 1 µM. Then `O=C(CCOC[C@H](CCO)Nc1cn[nH]c(=O)c1C(F)(F)F)N1CCN(c2ncc(C(F)(F)F)cn2)CC1` [Example 643, (S)-5-((4-Hydroxy-1-(3-oxo-3-(4-(5-(trifluoromethyl)pyrimidin-2-yl)piperazin-1-yl)propoxy)butan-2-yl)amino)-4-(trifluoromethyl)pyridazin-3(2H)-one], with under 0.1 µM. Then `C[C@@H](COCCC(=O)N1CCN(c2cnc(Cl)cn2)CC1)Nc1cn[nH]c(=O)c1C(F)(F)F` [Example 644, (S)-5-((1-(3-(4-(5-Chloropyrazin-2-yl)piperazin-1-yl)-3-oxopropoxy)propan-2-yl)amino)-4-(trifluoromethyl)pyridazin-3(2H)-one], with under 0.1 µM; and `C[C@@H](CN(C)CCC(=O)N1CCN(c2ccc(C#N)cn2)CC1)Oc1cn[nH]c(=O)c1C(F)(F)F` [Example 645, (S)-6-(4-(3-(Methyl(2-((6-oxo-5-(trifluoromethyl)-1,6-dihydropyridazin-4-yl)oxy)propyl)amino)propanoyl)piperazin-1-yl)nicotinonitrile], with under 0.1 µM. Then `C[C@@H](COCCC(=O)N1CC=C(c2ccc(C#N)cn2)CC1)Oc1cn[nH]c(=O)c1C(F)(F)F` [Example 646, (S)-1′-(3-(2-((6-Oxo-5-(trifluoromethyl)-1,6-dihydropyridazin-4-yl)oxy)propoxy)propanoyl)-1′,2′,3′,6′-tetrahydro-[2,4′-bipyridine]-5-carbonitrile], with under 0.1 µM; and `O=C(CCOC[C@H](Cc1ccncc1)Nc1cn[nH]c(=O)c1C(F)(F)F)N1CCN(c2ncc(C(F)(F)F)cn2)CC1` [Example 647, (S)-5-((1-(3-Oxo-3-(4-(5-(trifluoromethyl)pyrimidin-2-yl)piperazin-1-yl)propoxy)-3-(pyridin-4-yl)propan-2-yl)amino)-4-(trifluoromethyl)pyridazin-3(2H)-one], with under 0.1 µM.

Compound `O=C(CCOC[C@H](CC1CCNCC1)Nc1cn[nH]c(=O)c1C(F)(F)F)N1CCN(c2ncc(C(F)(F)F)cn2)CC1` [Example 648, (S)-5-((1-(3-Oxo-3-(4-(5-(trifluoromethyl)pyrimidin-2-yl)piperazin-1-yl)propoxy)-3-(piperidin-4-yl)propan-2-yl)amino)-4-(trifluoromethyl)pyridazin-3(2H)-one] yielded an IC50 of at least 1 µM.

In the case of `O=C(CCOC[C@@H](CC1CCNCC1)Nc1cn[nH]c(=O)c1C(F)(F)F)N1CCN(c2ncc(C(F)(F)F)cn2)CC1` [Example 649, (R)-5-((1-(3-Oxo-3-(4-(5-(trifluoromethyl)pyrimidin-2-yl)piperazin-1-yl)propoxy)-3-(piperidin-4-yl)propan-2-yl)amino)-4-(trifluoromethyl)pyridazin-3(2H)-one], the IC50 is under 0.1 µM.

With `C[C@@H](COCCC(=O)N1CCN(c2ccc(C#N)cn2)CC1)Oc1cn[nH]c(=O)c1Br` [Example 650, (S)-6-(4-(3-(2-((5-Bromo-6-oxo-1,6-dihydropyridazin-4-yl)oxy)propoxy)propanoyl)piperazin-1-yl)nicotinonitrile], the IC50 was under 0.1 µM.

As to `COC[C@@H](COCCC(=O)N1CCN(c2ncc(C(F)(F)F)cn2)CC1)Nc1cn[nH]c(=O)c1Cl` [Example 651, (S)-4-Chloro-5-((1-methoxy-3-(3-oxo-3-(4-(5-(trifluoromethyl)pyrimidin-2-yl)piperazin-1-yl)propoxy)propan-2-yl)amino)pyridazin-3(2H)-one], the IC50 was under 0.1 µM. Compound `C[C@@H](COCCC(=O)N1CC=C(c2ncc(C(F)(F)F)cn2)CC1)Nc1cn[nH]c(=O)c1C(F)(F)F` [Example 652, (S)-5-((1-(3-Oxo-3-(4-(5-(trifluoromethyl)pyrimidin-2-yl)-3,6-dihydropyridin-1(2H)-yl)propoxy)propan-2-yl)amino)-4-(trifluoromethyl)pyridazin-3(2H)-one] displayed an IC50 of under 0.1 µM. With `O=C(CCOC[C@@H](Nc1cn[nH]c(=O)c1C(F)(F)F)C1CCNCC1)N1CCN(c2ncc(C(F)(F)F)cn2)CC1` [Example 653, (S)-5-((2-(3-Oxo-3-(4-(5-(trifluoromethyl)pyrimidin-2-yl)piperazin-1-yl)propoxy)-1-(piperidin-4-yl)ethyl)amino)-4-(trifluoromethyl)pyridazin-3(2H)-one], the IC50 is at least 1 µM. `C[C@@H](COCCC(=O)N1CCN(c2ccc(C#N)cn2)CC1)Sc1cn[nH]c(=O)c1C(F)(F)F` [Example 655, (S)-6-(4-(3-(2-((6-Oxo-5-(trifluoromethyl)-1,6-dihydropyridazin-4-yl)thio)propoxy)propanoyl)piperazin-1-yl)nicotinonitrile] gave an IC50 of under 0.1 µM.

The compound `C[C@@H](COCCC(=O)N1CCN(c2ccc(CC#N)cn2)CC1)Oc1cn[nH]c(=O)c1C(F)(F)F` [Example 656, (S)-2-(6-(4-(3-(2-((6-Oxo-5-(trifluoromethyl)-1,6-dihydropyridazin-4-yl)oxy)propoxy)propanoyl)piperazin-1-yl)pyridin-3-yl)acetonitrile] displayed an IC50 of under 0.1 µM. Then `CC[C@@H](COCCC(=O)N1CCN(c2ncc(C(F)(F)F)cn2)CC1)Oc1cn[nH]c(=O)c1Br` [Example 657, (S)-4-Bromo-5-((1-(3-oxo-3-(4-(5-(trifluoromethyl)pyrimidin-2-yl)piperazin-1-yl)propoxy)butan-2-yl)oxy)pyridazin-3(2H)-one], with under 0.1 µM; and `C[C@@H](COCCC(=O)N1CCC(c2ccc(C#N)cn2)CC1)Oc1cn[nH]c(=O)c1C(F)(F)F` [Example 658, (S)-6-(1-(3-(2-((6-Oxo-5-(trifluoromethyl)-1,6-dihydropyridazin-4-yl)oxy)propoxy)propanoyl)piperidin-4-yl)nicotinonitrile], with under 0.1 µM. Regarding `O=C(CCOC[C@H](CO)Nc1cn[nH]c(=O)c1Br)N1CCN(c2ncc(C(F)(F)F)cn2)CC1` [Example 660, (S)-4-Bromo-5-((1-hydroxy-3-(3-oxo-3-(4-(5-(trifluoromethyl)pyrimidin-2-yl)piperazin-1-yl)propoxy)propan-2-yl)amino)pyridazin-3(2H)-one], the IC50 was under 0.1 µM. Turning to `C[C@@H](COCCC(=O)N1CCN(c2cnc(C(F)(F)F)cn2)CC1)Oc1cn[nH]c(=O)c1C(F)(F)F` [Example 662, (S)-5-((1-(3-Oxo-3-(4-(5-(trifluoromethyl)pyrazin-2-yl)piperazin-1-yl)propoxy)propan-2-yl)oxy)-4-(trifluoromethyl)pyridazin-3(2H)-one], the IC50 was under 0.1 µM. Consider `N#Cc1ccc(N2CCN(C(=O)CCOC[C@H](CN3CCOCC3)Oc3cn[nH]c(=O)c3C(F)(F)F)CC2)nc1` [Example 663, (S)-6-(4-(3-(3-Morpholino-2-((6-oxo-5-(trifluoromethyl)-1,6-dihydropyridazin-4-yl)oxy)propoxy)propanoyl)piperazin-1-yl)nicotinonitrile], for which the IC50 was under 0.1 µM. On to `C[C@@H](COCCC(=O)N1CCC(c2ncc(C(F)(F)F)cn2)CC1)Nc1cn[nH]c(=O)c1C(F)(F)F` [Example 664, (S)-5-((1-(3-Oxo-3-(4-(5-(trifluoromethyl)pyrimidin-2-yl)piperidin-1-yl)propoxy)propan-2-yl)amino)-4-(trifluoromethyl)pyridazin-3(2H)-one], for which the IC50 is under 0.1 µM. Then `O=C(CCOC[C@H](CO)Nc1cn[nH]c(=O)c1C(F)(F)F)N1CCN(c2ncc(Cl)cn2)CC1` [Example 665, (S)-5-((1-(3-(4-(5-Chloropyrimidin-2-yl)piperazin-1-yl)-3-oxopropoxy)-3-hydroxypropan-2-yl)amino)-4-(trifluoromethyl)pyridazin-3(2H)-one], with under 0.1 µM. Then `COC[C@@H](COCCC(=O)N1CCN(c2ncc(C(F)(F)F)cn2)CC1)Oc1cn[nH]c(=O)c1Br` [Example 666, (S)-4-Bromo-5-((1-methoxy-3-(3-oxo-3-(4-(5-(trifluoromethyl)pyrimidin-2-yl)piperazin-1-yl)propoxy)propan-2-yl)oxy)pyridazin-3(2H)-one], with under 0.1 µM; and `COC[C@H](COCCC(=O)N1CCN(c2ncc(C(F)(F)F)cn2)CC1)Oc1cn[nH]c(=O)c1Br` [Example 667, (R)-4-Bromo-5-((1-methoxy-3-(3-oxo-3-(4-(5-(trifluoromethyl)pyrimidin-2-yl)piperazin-1-yl)propoxy)propan-2-yl)oxy)pyridazin-3(2H)-one], with at least 1 µM. Compound `COC[C@@H](COCCC(=O)N1CCN(c2ncc(C(F)(F)F)cn2)CC1)Nc1cn[nH]c(=O)c1Br` [Example 668, (S)-4-Bromo-5-((1-methoxy-3-(3-oxo-3-(4-(5-(trifluoromethyl)pyrimidin-2-yl)piperazin-1-yl)propoxy)propan-2-yl)amino)pyridazin-3(2H)-one] registered an IC50 of under 0.1 µM. In turn, `C[C@@H](COCCC(=O)N1CCCN(c2ncc(C(F)(F)F)cn2)CC1)Nc1cn[nH]c(=O)c1C(F)(F)F` [Example 669, (S)-5-((1-(3-Oxo-3-(4-(5-(trifluoromethyl)pyrimidin-2-yl)-1,4-diazepan-1-yl)propoxy)propan-2-yl)amino)-4-(trifluoromethyl)pyridazin-3(2H)-one] gave an IC50 of under 0.1 µM.
